Results taken from patent publication US7432375B2, “JNK inhibitors” (Eisai R & D Management Co., Ltd., priority 2003, dated 2008).

How the values were obtained:
Format in all cases: biochemical
p38 MAP kinase = molecular target: T1, p38 MAP kinase (Homo sapiens, UniProt Q16539); experiment: p38 ELISA; conditions: phosphorylation of GST-ATF2, 50 μM ATP
T1 construct: purchased Upstate
Protocol: Active p38 kinase (100 ng; Upstate) was added to 2 μg GST-ATF2 substrate (NEB) in 250 mM Hepes pH 7.5/100 mM MgAc/50 μM ATP (final) in the presence or absence of compounds in 50 μl. The mixture was incubated at 30° C. for 1 hour, and then diluted with 200 μl PBS-Tween (0.05%). From this, duplicate volumes of 100 μl were added to a Reacti-Bind glutathione coated plate (Pierce) and incubated for 1 hour. After washing 3 times with PBS-Tween (0.05%), rabbit anti-phospho-ATF2 (Thr71) antibody (NEB) was added at 1:500, and incubated for another hour at room temperature. After 3 additional washes with PBS-Tween (0.05%), […] anti-rabbit IgG alkaline phosphatase-conjugated secondary antibody (Sigma) was added at 1:1000, the reaction was incubated for a further hour, washed 3 times, and then phosphatase substrate (Sigma) was added (100 μl per well; 3 tablets in 5 ml water). After incubation in the dark at 37° C. for 1 hour, the reaction mixture was transferred to a clear 96 well plate, and the absorbance at 405 nm was read.
The IC50 values are calculated as the concentration of the compound being tested at which the phosphorylation of ATF2 is decreased to 50% of the control value.

JNK3 = JNK3 (Homo sapiens, UniProt P53779); experiment: JNK3 SPA assay; conditions: phosphorylation of GST-c-Jun, 3.33 μM ATP
Protocol: (§1) JNK1, JNK2, JNK3—SPA Assay
(§2) • 1. Compound is dissolved in DMSO to a convenient concentration and this is diluted in 10% DMSO to a five times concentrate of the desired starting concentration (frequently 1:100). • 2. 10 μl of 500 mM EDTA is added to alternative wells of the Opti-plate row, which will receive kinase reaction plus DMSO. This creates the negative control. • 3. For the JNK2 and JNK3 assay, compounds are prepared in six 2-fold dilutions with water and each concentration is tested in duplicate. For the JNK1 assay compounds are prepared in four 5-fold dilutions with water which are tested in triplicate. Controls are treated identically. • 4. 20 μl per well of each compound concentration is transferred to an Opti-plate, in duplicate. • 5. 30 μl (JNK2/3 SPA) or 50 μl (JNK1 SPA) of substrate solution (25 mM HEPES pH 7.5, 10 mM magnesium acetate with 3.33 μM ATP (JNK2/3) or 2 μM ATP (JNK1), approximately 7.5 kBq [γ-^33P] ATp, GST-c-Jun, in water) is added to each well. • 6. 50 μl (JNK2/3 SPA) or 30 μl (JNK1 SPA) of kinase solution (JNK in 25 mM HEPES pH 7.5, 10 mM Mg Acetate) is added to each well.
(§3) • 7. The plate is incubated for 30 minutes at room temperature. • 8. 100 μl of bead/stop solution is added to each well (5 mg/ml glutathione-PVT-SPA beads, 40 mM ATP in PBS). • 9. Plates are sealed and incubated for 30 minutes at room temperature, centrifuged for 10 minutes at 2500 g and counted. • 10. The IC50 values are calculated as the concentration of the compound being tested at which the phosphorylation of c-Jun is decreased to 50% of the control value.

JNK1 = JNK1 (Homo sapiens, UniProt P45983); experiment: JNK1 SPA assay; conditions: phosphorylation of GST-c-Jun, 2 μM ATP
Protocol: as §1, §2, §3

JNK2 = JNK2 (Homo sapiens, UniProt P45984); experiment: JNK2 SPA assay; conditions: phosphorylation of GST-c-Jun, 3.33 μM ATP
Protocol: as §1, §2, §3

Chain of JNK3 (P53779 whole entry): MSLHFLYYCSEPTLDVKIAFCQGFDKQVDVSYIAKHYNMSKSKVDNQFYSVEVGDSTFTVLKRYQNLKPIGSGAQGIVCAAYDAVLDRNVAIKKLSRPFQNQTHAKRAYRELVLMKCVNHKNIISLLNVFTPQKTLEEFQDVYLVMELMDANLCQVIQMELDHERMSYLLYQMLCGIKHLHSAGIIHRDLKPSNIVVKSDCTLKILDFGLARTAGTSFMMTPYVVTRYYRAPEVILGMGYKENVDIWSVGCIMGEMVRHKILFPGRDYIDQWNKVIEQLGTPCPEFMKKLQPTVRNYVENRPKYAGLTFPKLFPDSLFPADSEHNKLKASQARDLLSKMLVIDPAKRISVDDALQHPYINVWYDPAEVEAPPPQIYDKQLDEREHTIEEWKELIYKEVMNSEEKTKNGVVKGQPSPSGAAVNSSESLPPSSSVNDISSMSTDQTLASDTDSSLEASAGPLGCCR
T1 sequence (Q16539 whole entry): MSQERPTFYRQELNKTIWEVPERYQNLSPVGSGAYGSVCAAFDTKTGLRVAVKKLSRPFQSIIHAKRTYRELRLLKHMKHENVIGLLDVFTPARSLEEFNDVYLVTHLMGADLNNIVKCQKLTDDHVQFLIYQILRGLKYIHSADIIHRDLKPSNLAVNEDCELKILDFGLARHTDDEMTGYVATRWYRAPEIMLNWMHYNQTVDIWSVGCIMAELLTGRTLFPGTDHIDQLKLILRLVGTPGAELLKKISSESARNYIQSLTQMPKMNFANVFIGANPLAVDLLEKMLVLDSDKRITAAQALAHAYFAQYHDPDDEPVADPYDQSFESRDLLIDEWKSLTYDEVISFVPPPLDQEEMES
Chain of JNK1 (P45983 whole entry): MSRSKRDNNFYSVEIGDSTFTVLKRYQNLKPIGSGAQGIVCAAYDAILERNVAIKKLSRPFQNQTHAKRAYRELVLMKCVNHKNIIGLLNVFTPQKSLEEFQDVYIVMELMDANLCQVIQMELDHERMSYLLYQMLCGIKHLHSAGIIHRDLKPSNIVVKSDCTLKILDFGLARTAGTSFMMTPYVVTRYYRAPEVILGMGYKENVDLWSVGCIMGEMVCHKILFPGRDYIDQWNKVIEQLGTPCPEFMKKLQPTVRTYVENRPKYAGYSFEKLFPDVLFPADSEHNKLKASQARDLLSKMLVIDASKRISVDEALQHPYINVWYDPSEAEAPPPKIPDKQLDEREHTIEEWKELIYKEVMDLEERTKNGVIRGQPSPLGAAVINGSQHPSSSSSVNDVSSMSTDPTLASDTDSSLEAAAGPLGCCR
Chain of JNK2 (P45984 whole entry): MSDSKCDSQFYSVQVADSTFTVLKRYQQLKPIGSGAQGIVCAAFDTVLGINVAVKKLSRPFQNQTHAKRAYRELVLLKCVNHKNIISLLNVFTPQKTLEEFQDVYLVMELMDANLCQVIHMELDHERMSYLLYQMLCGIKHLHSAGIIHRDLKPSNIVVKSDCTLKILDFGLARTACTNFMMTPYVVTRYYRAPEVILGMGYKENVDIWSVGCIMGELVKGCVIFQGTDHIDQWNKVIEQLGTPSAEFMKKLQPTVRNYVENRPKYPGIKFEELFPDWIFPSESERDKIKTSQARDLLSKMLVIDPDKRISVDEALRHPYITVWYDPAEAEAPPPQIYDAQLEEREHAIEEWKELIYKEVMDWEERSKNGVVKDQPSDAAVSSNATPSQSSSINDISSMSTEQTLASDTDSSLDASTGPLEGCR

| Compound | IC50 (p38 MAP kinase) [nM] | IC50 (JNK3) [nM] | IC50 (JNK1) [nM] | IC50 (JNK2) [nM] |
| --- | --- | --- | --- | --- |
| CN(C)c1ccc(-c2cnc3[nH]cc(-c4ccoc4)c3c2)cc1 | > 10000 | < 500 | < 500 | < 500 |
| c1csc(-c2cnc3[nH]cc(-c4ccoc4)c3c2)c1 | > 10000 | < 500 | < 500 | < 500 |
| CN(C)c1ccc(-c2cnc3[nH]cc(-c4cc[nH]c4)c3c2)cc1 |  | < 500 |  |  |
| c1csc(-c2cnc3[nH]cc(-c4cncs4)c3c2)c1 | > 10000 | < 500 | < 500 | < 500 |
| Fc1cccc(-c2c[nH]c3ncc(-c4ccccc4Oc4ccccc4)cc23)c1 |  | < 500 |  |  |
| c1ccc(Oc2ccccc2-c2cnc3[nH]cc(-c4ccccc4)c3c2)cc1 |  | < 500 |  |  |
